{
  "source": "patent US7553815B1",
  "about": "“Therapeutic use” (priority 1999, dated 2009)",
  "tested_on": "normal breast epithelium",
  "test": "Normal breast xenografts: proliferation (Ki67 LI) and apoptosis (AI) (Example 2)",
  "type": "in vivo, human",
  "note": "Marks after values point to notes of the source that are not given here.",
  "data": [
    {"compound": "COc1cc2ncnc(Nc3ccc(F)c(Cl)c3)c2cc1OCCCN1CCOCC1", "note": "[ZD1839, N-(3-chloro-4-fluorophenyl)-7-methoxy-6-(3-morpholinopropoxy)quinazolin-4-amine]", "values": [
      {"measurement": "Median LI/AI, Normal breast", "setting": "Day 21, ratio of cell turnover", "value": "3.9***"},
      {"measurement": "Dose response of epithelial proliferation (Ki67 LI), FIG. 2", "setting": "normal breast, Day 28, 10-200 mg/kg", "value": "not in normal breast"}
    ]}
  ]
}
